Key:
[1] = Pharmacokinetic profile in APBD modeling mice, IV 250 mg/kg; conditions: in vivo
Protocol: FIGS. 9A-9C are pharmacokinetic profiles of Compound GHF-201 administered per os in formulation LDS-C to APBD patient 1 (FIG. 9A) and IV at 250 mg/kg to n=3 APBD modeling mice (FIG. 9B). Active ingredient doses in days 1, 2, and 3 were 170 mg, 255 mg, and 340 mg, respectively. Encircled in A, values blown up in FIG. 9C.
(§1) Compound GHF-201 was administered to APBD modeling mice as a 5% DMSO solution, IV injected twice a week at a dose of 250 mg/kg, equivalent to a daily dose of 70 mg/kg. Daily injection was avoided due to the relatively long duration of treatment (6 months), which might have led to excessive scarring. Following positive results in the murine model, compound GHF-201 was administered to two APBD patients as a part of a 3-day oral dose escalation study, during which clinical safety and pharmacokinetic profiles were determined.
Following the FDA human equivalent dose calculation, mouse dose can be converted to human dose by dividing by 12. […] Divided by 12, 4,700 ng/mL yields 392 ng/mL. […] Therefore, it was assumed that a human equivalent, or higher, dose in patients is at least as effective as the equivalent dose in mice.

[2] = Tissue penetration / distribution in APBD model mice (LC-MS/MS); format: in vivo
Protocol: FIGS. 8A-8B show tissue penetration test results in APBD model mice for Compound GHF-201 in non-formulated form (FIG. 8A) and formulated in LDS-C formulation (FIG. 8B). For pharmacokinetic analysis, 100 μl serum as well as brain, kidney, hind limb quad muscle, heart, liver, and spleen tissues were collected, homogenized, and extracted with acetonitrile following established guidelines (Kapetanovic et al, 2006). Calibration curves were made with 0, 1, 10, 100, and 1,000 ng/ml GHF-201 in 1 mg/ml solutions of 4-tert-butyl-2-(4H-1,2,4-triazol-4-yl) phenol (ChemBridge) as internal standard (IS). Tissue samples were then dissolved in 1 mg/ml IS solutions and spiked with 0-1,000 ng/ml GHF-201 to generate standard curves from which tissue levels of GHF201 were determined. Samples were analyzed by the LC-MS/MS Sciex Triple Quad™ 5500 mass spectrometer.
Gbeys/ys mice injected subcutaneously with 250 mg/kg GHF-201 were sacrificed 30, 60, 90, and 210 min post injection, and the indicated tissues were removed, as well as 100 μL of serum drawn. […] Results obtained from n=3 mice at each time point.
The distribution and kinetic parameters of GHF-201 was assessed in different tissues.

[3] = Pharmacokinetics, 3-day oral dose escalation study in APBD patients; format: in vivo, human; conditions: for Cmax: human, plasma, oral, 340 mg, per os in formulation LDS-C, 170, 255, 340 mg on days 1, 2, 3
Protocol: as §1
Blood was drawn during three consecutive days according to the following regime—pre-administration and 0.5 h, 1 h. 1.5 h, 2 h, and 4 h post-administration. Compound GHF-201 was administered as formulation LDS-C. 7.15% Compound GHF-201. Active ingredient doses were 170 mg on the first day, 255 mg on the second day, and 340 mg on the third day.
Following blood drawing, plasma was separated by centrifugation (up to 1 h from drawing) at 2000 g for 10 min. at 4° C. Compound GHF-201 levels in plasma (supernatant) samples were determined by LC-Mass Spectrometry (LC-MS/MS) using Sciex Triple Quad™ 5500 mass spectrometer. 100 μl of plasma were collected and extracted in 500 μl acetonitrile solution (acetonitrile/water 1:1 v/v). Calibration curves were made with 0.1, 10, 100, and 1000 ng/ml compound GHF-201 in 1 mg/ml solutions of 4-tert-butyl-2-(4H-1,2,4-triazol-4-yl) phenol (ChemBridge) as internal standard (IS). The samples were dissolved in 1 mg/ml IS solutions and spiked with 0-1000 ng/ml of compound GHF-201 to generate standard curves from which plasma levels of compound GHF-201 were determined.

[4] = system: mice; experiment: 14-day safety study in mice; format: in vivo; conditions: 14-day study
Protocol: Pharmacokinetically, subcutaneously injected in mice, compound GHF-201 had high dwell time and persistence (>3 h) in the liver, intermediate levels and persistence in brain and heart (1 h) and negligible distribution to the muscle. […] The ameliorative effect on extension reflex is especially important since the patient correlate is pyramidal tetraparesis or upper motor neuron signs which are one of the main neurological deficiencies in APBD patients.

[5] = subcutaneously injected in mice

With `COCCN(Cc1sccc1C)C(=O)c1cc(C)[nH]c(=O)c1` [Compound GHF-201] the Human-equivalent Cmax (mouse Cmax divided by 12) ([1]; intravenous, 250 mg/kg, FDA human equivalent dose calculation) was 392 ng/mL, the Cmax ([1]; mouse, APBD modeling mice, IV 250 mg/kg) was 4700 ng/mL and the “bioavailability increase in all tissues” value ([2]; orally administered in formulation vs subcutaneous injections of GHF-201 in solution, APBD model mice) was “at least three-fold”. For the same compound, the “distribution to the muscle” value [2, 5] was “negligible”, the “dwell time and persistence in the liver” value [2, 5] was greater than 3 h and the “persistence in brain and heart” value [2, 5] was 1 h. For the same compound, the Cmax ([3]; patient 1) was 894 ng/mL, the Cmax ([3]; patient 2) was 883 ng/mL and the “Areas Under the Curve (AUC)” value ([3]; patients 1 and 2, sum of trapezoids) was “correlated with the level of compound GHF-201 administered”. The “pre-administration levels in the plasma” value ([3]; patients, three consecutive days) was “increased every consecutive day” and the safety [4] was “safe”.
